The conditions of series [1]: prior human studies; cited from earlier work.
Series [2] deals with ADHD subjects with CNV in an mGluR network gene. Put plainly: Open-label Phase Ib clinical trial of NFC-1 in adolescent ADHD subjects with a genetic alteration in an mGluR network gene. It counts as in vivo, human. How it is done:
An open-label Phase Ib clinical trial was conducted to investigate the safety, pharmacokinetics and efficacy of NFC-1 (fasoracetam monohydrate) in adolescent subjects between the ages of 12 and 17 previously diagnosed with ADHD who also had at least one genetic alteration in an mGluR network gene.
The study included 30 ADHD subjects who were between ages 12 and 17, of any ancestry or race, of weight within the 5th to 95th percentile for their age, and otherwise judged to be in good medical health. […] Seventeen of the 30 subjects have a CNV in a tier 1 mGluR network gene, while 7 subjects have a CNV in a tier 2 gene and 6 in a tier 3 gene.
Exclusion criteria comprised subjects suffering from a clinically significant illness, either mental or physical, that, in the investigator's opinion, might confound the results of the study or that might prevent them from completing the study, subjects that are pregnant or nursing, subjects that test positive for illicit drugs of that have a history of drug abuse, subjects that consume alcoholic beverages, or subjects for which the investigator is otherwise concerned regarding their compliance or suitability.
NFC-1 capsules of either 50 mg or 200 mg comprising fasoracetam monohydrate as active ingredient and placebo capsules comprising microcellulose were used for the study. The design of the trial was a phone screening (1 day), enrollment phase (1 to 2 days), a wash-out phase for subjects currently on ADHD medications (1-14 days), pharmacokinetic (PK) assessment (2 days), followed by a dose-escalation phase (35 days) and a follow-up phone visit approximately four weeks after the last dose, for a maximum of 127 days. All ADHD medications were discontinued during the wash-out phase prior to the study. The wash-out period for stimulants was 2-3 days and that for atomoxetine or noradrenergic agonists was 10-12 days. No new ADHD medications were started during the study.
A dose-escalation phase of the trial ran over a 5-week period, after the initial wash-out period and the PK and initial safety assessments. […]

Series [3] relates to dementia-related cognitive impairment. To be noted: cited from earlier work.

SMILES strings stand for the structures.

Consider `O=C1CC[C@H](C(=O)N2CCCCC2)N1` [Fasoracetam, fasoracetam], for which, in series [1], the bioavailability is reported as 79%-97%.
For the compound `O=C1CC[C@H](C(=O)N2CCCCC2)N1` [NFC-1, fasoracetam monohydrate], the OCD symptoms result in series [2] (all eight subjects with OCD symptoms, during therapy) was “improved”. Besides, in series [2] (one subject with OCD and a history of ear scratching, during therapy), the “dermatillomania symptoms (ear scratching, bleeding ulcer)” value is on record as “reduced”. Moreover, the “conduct disorder symptoms, Vanderbilt items 27-40 score” value in series [2] (week 5, one subject meeting conduct disorder criteria, decreased from 16 at week 1 (placebo week), 50-400 mg bid dose escalation) came to 12. Moreover, the safety and tolerability entry in series [3] (Phase I-III trials, dementia-related cognitive impairment) is “generally safe and well tolerated”. Further, the “effects on psychiatric symptoms” value in series [3] (Phase III data, cerebral infarct patients and adult dementia patients with cerebrovascular diseases) was “beneficial effects”. In addition, the efficacy in dementia result in series [3] (Phase III trials) is “did not show sufficient efficacy”.

The values above are taken from US11806340B2, “Methods of diagnosing and treating conduct disorder” (THE CHILDREN'S HOSPITAL OF PHILADELPHIA, priority 2015, dated 2023).
